Drawing on article PMC6302903, “Protein and Chemical Determinants of BL-1249 Action and Selectivity for K2P Channels” (ACS Chemical Neuroscience, 2018), this text covers EC50 and solubility for one compound.

Each structure is given as a SMILES string. In brackets after ≈: the same amount, converted by molar mass.

The target in one series is T1, K2P4.1(TRAAK) M134F (Mus musculus, UniProt O88454, M134F).
T1 construct: expressed in transfected cells; host or cells: Xenopus laevis oocytes, mRNA injected
T1 sequence (O88454 whole entry M134F): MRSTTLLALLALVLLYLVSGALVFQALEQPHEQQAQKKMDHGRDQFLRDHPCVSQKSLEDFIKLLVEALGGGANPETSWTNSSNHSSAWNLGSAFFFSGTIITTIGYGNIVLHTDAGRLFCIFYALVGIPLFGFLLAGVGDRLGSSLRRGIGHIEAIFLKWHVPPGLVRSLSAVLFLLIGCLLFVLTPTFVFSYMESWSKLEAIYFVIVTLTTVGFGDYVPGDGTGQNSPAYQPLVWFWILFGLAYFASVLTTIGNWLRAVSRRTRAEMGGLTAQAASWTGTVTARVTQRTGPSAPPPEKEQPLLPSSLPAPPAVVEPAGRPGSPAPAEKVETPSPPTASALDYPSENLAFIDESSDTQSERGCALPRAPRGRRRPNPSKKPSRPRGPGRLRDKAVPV
The series can be described thus: TEVC of K2P4.1(TRAAK) mutant M134F. Type of series: cell-based. The conditions noted are these: Xenopus oocytes, saturation not reached, fit with upper boundary of 15 (I/I0). The source says: To identify K2P2.1(TREK-1) M2 residues that might participate in the BL-1249 response, we mapped the residues that differ between K2P2.1(TREK-1) and K2P4.1(TRAAK) in the context of the K2P2.1(TREK-1) structure[6] (Figure 5B,C). Two K2P2.1(TREK-1) M2 residues stood out as candidates that could explain the reduction in BL-1249 response when the entire M2 helix was replaced with M2 from K2P4.1(TRAAK). One is at the M2/M4 interface and occurs between Phe172 and Arg297 via a π–cation interaction that would be lost when Phe172 is replaced with the equivalent K2P4.1(TRAAK) residue Met134 (Figure 5C, right inset). […] To assess the importance of these interactions in the context of BL-1249 response, we made the K2P2.1(TREK-1) mutants F172M and F185L and measured their responses to BL-1249 (Figure 5D). […]
Xenopus laevis oocytes were harvested in accordance with UCSF IACUC protocol AN129690 and digested in calcium-free ND-96 (96 mM NaCl, 2 mM KCl, 3.8 mM MgCl2) immediately following harvest, as previously described.[6],[10] […] Defolliculated stage V–VI oocytes were injected with 0.2–6.0 ng of mRNA in 50 nL, and currents were recorded 24–48 h after injection. mRNA was synthesized from plasmid DNA using mMessage mMachine Kit (T7 promoter, Ambion, Life Technologies) and purified using RNEasy Kit (Qiagen). […]

The nature of series [1]: BL-1249 solubility limit in recording solution. Type of series: physicochemical. The conditions noted are these: standard ND96 recording solution. The protocol:
BL-1249 activates K2P2.1(TREK-1)[18],[40] and K2P10.1(TREK-2),[7] but its effects on other K2P channels have not been characterized. […] In order to test if the original 10 μM assay had missed BL-1249 effects in other K2P channels, we tested concentrations of BL-1249 up to the solubility limit (∼80 μM) against the other K2P subfamily representatives.

Regarding `c1ccc(-c2nnn[nH]2)c(Nc2cccc3c2CCCC3)c1` [BL-1249, (5,6,7,8-tetrahydro-naphthalen-1-yl)-[2-(1H-tetrazol-5-yl)-phenyl]-amine], on K2P4.1(TRAAK) M134F, the EC50 was 58 ± 34 µM. The solubility in series [1] was roughly 80 µM (≈ 23.3 µg/mL).
